From article PMC5454376, “Molecular mechanism of Gαi activation by non-GPCR proteins with a Gα-Binding and Activating motif” (Nature Communications, 2017) come the findings set out here.

For one assay, the system named is Gαi3-GDP. As to the kind of experiment: NMR perturbation of Gαi3-GDP backbone amide signals. Type of assay: binding, human. Particulars: fivefold molar excess of peptide, 30 °C, pH 7.0. As for the experimental part: Full-length human Gαi3 (UNIPROT entry P08754) cloned in a pET24d(+) plasmid (a generous gift from Ichio Shimada, University of Tokyo) was used to purify the protein used in NMR experiments. For this, protein expression was induced in BL21 Rosetta (Life Technologies) cell cultures with 1 mM IPTG for 16 h at 23 °C in a modified M9 minimal medium containing 1 g l^−1 15N-NH4Cl, 2 g l^−1 2H-^13C-glucose and 1 g l^−1 of ^2H-^13C-^15N Celtone base powder in ^2H2O with 30 mg l^−1 kanamycin and 34 mg l^−1 chloramphenicol. The pelleted cells were lysed by sonication in 50 mM Tris, 200 mM NaCl, 100 mM KCl and 1 mM DTT at pH 8.0, and the supernatant was loaded on a Ni^2+-loaded His-Trap FF column. […]
All NMR data were measured on a Bruker Avance III 800 MHz (18.8 T) spectrometer equipped with a cryogenically cooled triple resonance z-gradient probe, processed with Topspin (Bruker) and analysed with Sparky. […] Gαi3 spectra were recorded at 30 °C on ^2H-^13C-^15N–Gαi3 samples with a threefold molar excess of GDP in 10 mM HEPES (pH 7.0) with 10 mM MgCl2, 5 mm DTT, 0.01% NaN3 and 5% ^2H2O. […] The assignment of Gαi3 resonances in the presence of a fivefold molar excess of GIV fragment 1,671–1,696 was achieved from the joint analysis of an HNCO and ^1H–^15N TROSY spectra recorded along a titration (at molar ratios 1:0, 1:0.2,1:0.5, 1:1, 1:2 and 1:5). […]

In a further assay the target is T1, His-Gαi3 L249V (Homo sapiens, UniProt P08754, L249V).
T1 construct: Full-length human Gαi3 (UNIPROT entry P08754) cloned in a pET24d(+) plasmid; made in house; host or cells: E. coli BL21 Rosetta
As to the kind of experiment: Fluorescence polarization peptide binding, Gαi3 L249V. Particulars: peptide 0.025 μM, pH 7.4, room temperature, mean±s.e.m., n=3–7, Fig. 4d, read-out: Kd ± SEM. How it is done:
(§1) Human Gαi3 was expressed from the same plasmid as described for the NMR studies and purified as an uncleaved His-tagged protein. […] After sonication (four cycles, with pulses lasting 20 s and with 1 min interval between pulses to prevent heating), lysates were centrifuged at 12,000g for 20 min at 4 °C. […] The buffer was exchanged for 20 mM Tris-HCl, pH 7.4, 20 mM NaCl, 1 mM MgCl2, 1 mM DTT, 10 μM GDP and 5% (v/v) glycerol using a HiTrap Desalting column (GE Healthcare). Protein samples were stored at −80 °C.
(§2) Fluorescence polarization-based peptide-binding assays
(§3) Briefly, following chain elongation 5,6-carboxyfluorescein was activated with HATU and coupled to the resin-bound peptide at 65 °C for 1 h to yield the fluorescein-labelled peptides. […] Fluorescence polarization measurements were carried out in 384-well plates (Black OptiPlate-384F, Perkin Elmer). […] Fluorescence polarization (excitation 485±10 nm/emission 528±10 nm) was measured every 2 min for 30 min at room temperature in a Biotek H1 synergy plate reader to ensure that the signals were stable in time. Fluorescence polarization at different times was averaged, normalized and fitted to a one site binding hyperbola to determine the equilibrium dissociation constant (Kd). For mutants not reaching binding saturation, the maximal binding of Gαi3 WT measured in the same experimental set was considered 100% binding for normalization.
Background: Polarisation of emitted light reports the rotation of a fluorescent probe.

For the next assay, the target named is T2, His-Gαi3 F215A (Homo sapiens, UniProt P08754, F215A).
T2 construct: Full-length human Gαi3 (UNIPROT entry P08754) cloned in a pET24d(+) plasmid; made in house; host or cells: E. coli BL21 Rosetta
As to the kind of experiment: Fluorescence polarization peptide binding, Gαi3 F215A. Particulars: peptide 0.025 μM, pH 7.4, room temperature, mean±s.e.m., n=3–7, Fig. 4d, read-out: Kd ± SEM. How it is done: as §1, §2, §3

A further assay has as its target T3, ΔHis-Gαi3 (Homo sapiens, UniProt P08754).
T3 construct: Full-length human Gαi3 (UNIPROT entry P08754) cloned in a pET24d(+) plasmid; His-tag (N, cleaved yes); made in house; host or cells: E. coli BL21 Rosetta
As to the kind of experiment: Fluorescence polarization peptide binding, ΔHis-Gαi3. Particulars: room temperature, n=3, Supplementary Fig. 5. How it is done: Briefly, following chain elongation 5,6-carboxyfluorescein was activated with HATU and coupled to the resin-bound peptide at 65 °C for 1 h to yield the fluorescein-labelled peptides. The remaining steps were carried out as described above. Fluorescence polarization measurements were carried out in 384-well plates (Black OptiPlate-384F, Perkin Elmer). […] Fluorescence polarization (excitation 485±10 nm/emission 528±10 nm) was measured every 2 min for 30 min at room temperature in a Biotek H1 synergy plate reader to ensure that the signals were stable in time. Fluorescence polarization at different times was averaged, normalized and fitted to a one site binding hyperbola to determine the equilibrium dissociation constant (Kd). For mutants not reaching binding saturation, the maximal binding of Gαi3 WT measured in the same experimental set was considered 100% binding for normalization.

The target of the next assay is T4, His-Gαi3 N256E (Homo sapiens, UniProt P08754, N256E).
T4 construct: Full-length human Gαi3 (UNIPROT entry P08754) cloned in a pET24d(+) plasmid; made in house; host or cells: E. coli BL21 Rosetta
As to the kind of experiment: Fluorescence polarization peptide binding, Gαi3 N256E. Particulars: peptide 0.025 μM, pH 7.4, room temperature, mean±s.e.m., n=3–7, Fig. 4d, read-out: Kd ± SEM. As for the experimental part:
as §1, §2, §3

The target of a further assay is T5, His-Gαi3 W211A (Homo sapiens, UniProt P08754, W211A).
T5 construct: Full-length human Gαi3 (UNIPROT entry P08754) cloned in a pET24d(+) plasmid; made in house; host or cells: E. coli BL21 Rosetta
Description: Fluorescence polarization peptide binding, Gαi3 W211A. Particulars: peptide 0.025 μM, pH 7.4, room temperature, mean±s.e.m., n=3–7, Fig. 4d, read-out: Kd ± SEM. How it is done:
as §1, §2, §3

The target of the next assay is T6, His-Gαi3 K35A (Homo sapiens, UniProt P08754, K35A).
T6 construct: Full-length human Gαi3 (UNIPROT entry P08754) cloned in a pET24d(+) plasmid; made in house; host or cells: E. coli BL21 Rosetta
As to the kind of experiment: Fluorescence polarization peptide binding, Gαi3 K35A. Particulars: peptide 0.025 μM, pH 7.4, room temperature, mean±s.e.m., n=3–7, Fig. 4d, read-out: Kd ± SEM. How it is done: as §1, §2, §3

In assay [1] the test system is His-Gαi3 mutants in complex with Gβ1γ1. Description: Steady-state GTPase assay with rhodopsin. Type of assay: biochemical, human. Particulars: rhodopsin 20 nM, Gαi3/Gβ1γ1 100/200 nM, 30 °C. As for the experimental part: Steady-state GTPase assays with rhodopsin
ROS membranes washed with urea were prepared as described earlier and used as the source of rhodopsin[67]. Human His-tagged Gαi3 WT and mutants (20–25 μM) were incubated overnight at 4 °C with twofold excess Gβ1γ1 in 20 mM Tris-HCl, pH 7.4, 20 mM NaCl, 1 mM MgCl2, 1 mM DTT, 10 μM GDP and 5% (v/v) glycerol. Bovine rhodopsin was freshly solubilized from urea-washed ROS membranes in assay buffer (20 mM HEPES, pH 7.5, 100 mM NaCl, 5 mM MgCl2, 1 mM DTT and 0.01% (w:v) dodecylmaltoside) for each experiment. Gαi3/Gβ1γ1 (100/200 nM final) and rhodopsin (20 nM final) were incubated in ice for 30 min under ambient light in assay buffer. Reactions were initiated at 30 °C by adding an equal volume of assay buffer containing 1 μM [γ-^32P]GTP (∼50 c.p.m. fmol^−1) and stopped in duplicates by mixing 25 μl of the reaction with 975 μl of ice-cold 5% (w/v) activated charcoal in 20 mM H3PO4, pH 3. Samples were then centrifuged for 10 min at 10,000g, and 500 μl of the resultant supernatant were scintillation-counted to quantify the amount of [^32P]Pi released. Background [^32P]Pi detected at 15 min in the absence of G protein was subtracted from each reaction (<5% of the counts detected in the presence of G proteins). Results were expressed as per cent of the activity of Gi3 WT without rhodopsin.

In another assay the test system is His-Gαi3 W211A and F215A. Description: Gβγ-binding pull-down assay. Also noted: species or system human. Particulars: bovine Gβ1γ1 100 nM, Gαi3 50 nM, 4 h, 4 °C, 30 μM GDP. As for the experimental part: Gβγ was purified from bovine retinas, which are primarily composed of Gβ1γ1 by purification of holotransducin from rod outer segment (ROS) membranes isolated from dark-adapted bovine followed by separation of the Gβ1γ1 complex from the α-subunit of transducin on a Hitrap Blue-sepharose column (GE healthcare), and further purification by anion exchange chromatography using a Hitrap-Q column.
For binding assays, Gβ1γ1 (100 nM final) was incubated in the absence or presence of human His-tagged Gαi3 WT or mutants (50 nM final) in 250 μl of binding buffer (50 mM Tris-HCl, pH 7.4, 100 mM NaCl, 0.4% (v:v) NP-40, 5 mM MgCl2, 10 mM imidazole, 0.1 mg ml^−1 BSA, 1 mM DTT and 30 μM GDP) for 4 h at 4 °C with rotation. A volume of 25 μl of BSA-blocked HisPur cobalt resin (Pierce) were added to each tube and the incubation continued for 90 min. Beads were washed four times with 1 ml of binding buffer and resin-bound proteins eluted by adding Laemmli sample buffer supplemented with 100 mM EDTA and boiling for 5 min. […]

Where a SMILES comes first, the peptide text is derived from it. The star is where a group is joined. 6FAM = O=C1OC2(c3ccc(O)cc3Oc3cc(O)ccc32)c2cc(C(=O)*)ccc21

T1 sequence (P08754 whole entry L249V): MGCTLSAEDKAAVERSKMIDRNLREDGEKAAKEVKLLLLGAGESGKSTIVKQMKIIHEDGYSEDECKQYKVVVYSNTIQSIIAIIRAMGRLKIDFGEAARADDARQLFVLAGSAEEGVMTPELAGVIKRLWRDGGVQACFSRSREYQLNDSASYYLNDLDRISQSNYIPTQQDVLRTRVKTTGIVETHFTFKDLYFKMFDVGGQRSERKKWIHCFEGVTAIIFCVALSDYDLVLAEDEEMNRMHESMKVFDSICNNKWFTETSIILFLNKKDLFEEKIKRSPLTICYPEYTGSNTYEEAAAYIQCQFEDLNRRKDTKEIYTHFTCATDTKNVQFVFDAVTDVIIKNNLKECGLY
T3 sequence (P08754 whole entry, stated change not applied): as the sequence (P08754 whole entry L249V) above, with V249L counted along it
T6 sequence (P08754 whole entry K35A): as the sequence (P08754 whole entry L249V) above, with K35A, V249L counted along it
T5 sequence (P08754 whole entry W211A): as the sequence (P08754 whole entry L249V) above, with W211A, V249L counted along it
T4 sequence (P08754 whole entry N256E): as the sequence (P08754 whole entry L249V) above, with V249L, N256E counted along it
T2 sequence (P08754 whole entry F215A): as the sequence (P08754 whole entry L249V) above, with F215A, V249L counted along it

For “KTGSPGSEVVTLQQFLEESNKLTSVQ [GIVpept, peptide corresponding to GIV amino acids 1,671–1,696]”, the “overall decrease in signal intensities” value with Gαi3-GDP is about 15%.

Turning to `CC[C@H](C)[C@H](NC(=O)[C@H](CC(C)C)NC(=O)[C@H](CCC(=O)O)NC(=O)[C@H](Cc1ccccc1)NC(=O)[C@H](Cc1ccccc1)NC(=O)[C@H](CCC(=O)O)NC(=O)[C@H](CCC(=O)O)NC(=O)[C@H](C)NC(=O)[C@H](CCC(=O)O)NC(=O)[C@H](CC(=O)O)NC(=O)c1ccc2c(c1)C1(OC2=O)c2ccc(O)cc2Oc2cc(O)ccc21)C(=O)N[C@@H](CO)C(=O)N[C@@H](CCCCN)C(=O)N[C@@H](C)C(=O)N[C@@H](CCC(N)=O)C(=O)N[C@@H](CO)C(=O)N[C@@H](CC(N)=O)C(=O)N[C@@H](CCCNC(=N)N)C(=O)N[C@@H](C)C(=O)N[C@@H](CC(=O)O)C(=O)N[C@@H](CC(=O)O)C(=O)N[C@@H](CCC(N)=O)C(=O)N[C@@H](CCCNC(=N)N)C(=O)NCC(=O)N[C@@H](CC(C)C)C(=O)N[C@@H](CC(C)C)C(=O)N[C@@H](CCCNC(=N)N)C(=O)N[C@@H](CCCCN)C(=O)N[C@@H](CCC(=O)O)C(=O)N[C@@H](CC(=O)O)C(=O)N[C@@H](CC(C)C)C(=O)N[C@H](C(=O)N[C@@H](CC(C)C)C(=O)N1CCC[C@H]1C(=O)N[C@@H](CCC(=O)O)C(=O)N[C@@H](Cc1ccccc1)C(=O)N[C@@H](CC(C)C)C(=O)N[C@@H](CCCNC(=N)N)C(N)=O)C(C)C` [RGS12, reference compound] (6FAM-DEAEEFFELISKAQSNRADDQRGLLRKEDLVLPEFLR-NH2), the equilibrium dissociation constant (Kd) at His-Gαi3 L249V amounted to 0.084 ± 0.009 µM.

In the case of `CC[C@H](C)[C@H](NC(=O)[C@H](CCC(N)=O)NC(=O)[C@@H](NC(=O)[C@H](CO)NC(=O)[C@@H](NC(=O)[C@H](CC(C)C)NC(=O)[C@H](CCCCN)NC(=O)[C@H](CC(N)=O)NC(=O)[C@H](CO)NC(=O)[C@H](CCC(=O)O)NC(=O)[C@H](CCC(=O)O)NC(=O)[C@H](CC(C)C)NC(=O)[C@H](Cc1ccccc1)NC(=O)[C@H](CCC(N)=O)NC(=O)[C@H](CCC(N)=O)NC(=O)[C@H](CC(C)C)NC(=O)[C@@H](NC(=O)[C@@H](NC(=O)[C@@H](NC(=O)[C@H](CCC(=O)O)NC(=O)[C@H](CO)NC(=O)CNC(=O)[C@@H]1CCCN1C(=O)[C@H](CO)NC(=O)CNC(=O)[C@@H](NC(=O)[C@H](CCCCN)NC(=O)c1ccc2c(c1)C1(OC2=O)c2ccc(O)cc2Oc2cc(O)ccc21)[C@@H](C)O)C(C)C)C(C)C)[C@@H](C)O)[C@@H](C)O)C(C)C)C(=O)N[C@@H](CCCCN)C(=O)N[C@@H](CO)C(=O)N[C@@H](CO)C(=O)N[C@@H](CO)C(N)=O` [GIV], the Kd at His-Gαi3 F215A was over 10 µM; at His-Gαi3 L249V, 1.37 ± 0.199 µM; at His-Gαi3 N256E it was over 20 µM; on His-Gαi3 W211A it was over 20 µM; on His-Gαi3 K35A, over 10 µM. Also, the “affinity for ΔHis-Gαi3 compared with His-Gαi3” value at ΔHis-Gαi3 is on record as “the same affinity”.

As to “rhodopsin: bovine rhodopsin solubilized from urea-washed ROS membranes”, in assay [1] (K35A, L249H, S252D and N256E), the “activation of Gαi3 mutants” value is “activated efficiently”. The “activation of Gαi3 ΔC9” value in assay [1] (ΔC9) is given as “completely abolished”.

In the case of “Gβγ: retinal Gβγ (Gβ1γ1) purified from bovine retinas”, the “binding to Gαi3 W211A and F215A” value in the assay on His-Gαi3 W211A and F215A is recorded as “abolished”.

What is called Kd is the free concentration of one partner at which half of the binding sites on the other are occupied at equilibrium, for simple one-to-one binding.
